# Results from US20260022142A1, “MACROCYCLIC IMMUNOMODULATORS” (Bristol-Myers Squibb Company, priority 2022, published 2026).
# Numbered stars: 1 amine (or outer) side, 2 acyl side, 3 side chain; on linkers, the order of the positions; unused ones are H or OH. Bridge positions count the residues as written; N and C are the ends. Square brackets hold non-standard residues; d marks the D form. Peptide text beside a SMILES is read from it. * marks the point of attachment. ξ: configuration not given here. Ala(indol-2-yl) = N[C@@H](Cc1cc2ccccc2[nH]1)C(=O)O; Phe(3-CF3) = N[C@@H](Cc1cccc(C(F)(F)F)c1)C(=O)O; Ala(morpholin-4-yl) = N[C@@H](CN1CCOCC1)C(=O)O; Phe(4-COOH) = N[C@@H](Cc1ccc(C(=O)O)cc1)C(=O)O; Bip = N[C@@H](Cc1ccc(-c2ccccc2)cc1)C(=O)O; Phe(3-CN) = N#Cc1cccc(C[C@H](N)C(=O)O)c1; NH(CH2)14COOH = O=C(O)CCCCCCCCCCCCCCN*; Phe(3-Me) = Cc1cccc(C[C@H](N)C(=O)O)c1; βAsp = O=C(O)[C@H](CC(=O)[*:2])N[*:1]; NH(CH2)12COOH = O=C(O)CCCCCCCCCCCCN*; PEG6 = NCCOCCOCCOCCOCCOCCOCCC(=O)O; Val(3-OH) = CC(C)(O)[C@H](N)C(=O)O; hArg = N=C(N)NCCCC[C@H](N)C(=O)O; 4Pal = N[C@@H](Cc1ccncc1)C(=O)O; Cha = N[C@@H](CC1CCCCC1)C(=O)O; aThr = C[C@H](O)[C@H](N)C(=O)O; Thr(3ξ) = CC(O)[C@H](N)C(=O)O; 12Ado = NCCCCCCCCCCCC(=O)O; dNle = CCCC[C@@H](N)C(=O)O; dDab = NCC[C@@H](N)C(=O)O; Carboxymethyl = O=C(O)C*; Orn = NCCC[C@H](N)C(=O)O; Aun = NCCCCCCCCCCC(=O)O; Dab = NCC[C@H](N)C(=O)O; Dap = NC[C@H](N)C(=O)O; AEEA = NCCOCCOCC(=O)O
# Molecular target: T1, PD-1/PD-L1 interaction (PE-labeled human PD-L1-Ig binding to Jurkat cell line over-expressing human PD-1) (Homo sapiens, UniProt Q15116)
# T1 construct: expressed in transfected cells; host or cells: Jurkat
# T1 sequence (Q15116 25-288): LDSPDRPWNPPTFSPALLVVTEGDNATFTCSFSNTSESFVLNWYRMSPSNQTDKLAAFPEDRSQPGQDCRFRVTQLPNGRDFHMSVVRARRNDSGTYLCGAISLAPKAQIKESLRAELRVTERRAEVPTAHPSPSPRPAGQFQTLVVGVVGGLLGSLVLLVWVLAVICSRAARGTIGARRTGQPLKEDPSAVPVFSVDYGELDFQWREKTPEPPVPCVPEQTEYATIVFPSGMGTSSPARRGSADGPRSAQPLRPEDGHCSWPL
# Test: Jurkat-PD-1 Cell Binding High-Content Screening Assay (CBA)
# Type: cell-based
# Settings: Jurkat cell line over-expressing human PD-1; PE-labeled PD-L1-Ig 20 nM final; read-out: Jurkat hPD1-PDL1 IC50
# Procedure, shortened: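 Binding of fluorescent PD-L1-Ig (20 nM final) to Jurkat-PD-1 cells was measured by automated imaging after 1 h, following a 2 h compound pre-treatment at 37° C.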
row,SMILES,IC50
1,Cc1cccc(C[C@@H]2NC(=O)[C@H](CC(=O)O)NC(=O)[C@H](Cc3ccc(OCC(=O)O)cc3)NC(=O)[C@H](CN)NC(=O)CSC[C@@H](C(=O)N[C@@H](CCN)C(=O)NCCCCCCCCCCC(=O)O)NC(=O)[C@H]([C@@H](C)O)NC(=O)[C@H](C(C)C)NC(=O)[C@H](CC3CCCCC3)NC(=O)[C@H](CCN)NC(=O)[C@@H](CC(C)C)NC(=O)[C@H](CCCN)NC(=O)[C@H](Cc3ccc(O)cc3)NC(=O)[C@H](Cc3ccc(-c4ccccc4)cc3)NC(=O)[C@H](Cc3ccc(OCC(=O)O)cc3)NC2=O)c1 [Compound 2090] ({CH2CO}-[Dap]Y(Carboxymethyl)D[Phe(3-Me)]Y(Carboxymethyl)[Bip]Y[Orn][dL][Dab][Cha]VTC[Dab][Aun]-OH; thioether N-14),18.4 nM
2,CC(C)C[C@H]1NC(=O)[C@H](CCCN)NC(=O)[C@H](C(C)C)NC(=O)[C@H](Cc2ccc(-c3ccccc3)cc2)NC(=O)[C@H](C(C)C)NC(=O)[C@H](Cc2c[nH]c3ccccc23)NC(=O)[C@H](CC(=O)O)NC(=O)[C@H](Cc2ccc(OCC(=O)O)cc2)NC(=O)[C@H](CCCCNC(=N)N)NC(=O)CSC[C@@H](C(=O)N[C@@H](CCN)C(=O)NCCCCCCCCCCC(=O)O)NC(=O)[C@H](C(C)O)NC(=O)[C@H](C(C)C)NC(=O)[C@H](CC2CCCCC2)NC(=O)[C@H](CCN)NC1=O (stereo partly drawn) [Compound 3267] ({CH2CO}-[hArg]Y(Carboxymethyl)DWV[Bip]V[Orn][dL][Dab][Cha]V[Thr(3ξ)]C[Dab][Aun]-OH; thioether N-14),16.3 nM
3,CCCC[C@H]1NC(=O)[C@H](CCCN)NC(=O)[C@H](C(C)C)NC(=O)[C@H](Cc2ccc(-c3ccccc3)cc2)NC(=O)[C@H](C(C)C)NC(=O)[C@H](Cc2cc3ccccc3[nH]2)NC(=O)[C@H](CC(=O)O)NC(=O)[C@H](Cc2ccc(OCC(=O)O)cc2)NC(=O)[C@H](CN)NC(=O)CSC[C@@H](C(=O)N[C@@H](CCN)C(=O)NCCOCCOCC(=O)NCCCCCCCCCCC(=O)O)NC(=O)[C@H](CCCCN)NC(=O)[C@H](C(C)C)NC(=O)[C@H](CC2CCCCC2)NC(=O)[C@H](CCN)NC1=O [Compound 2678] ({CH2CO}-[Dap]Y(Carboxymethyl)D[Ala(indol-2-yl)]V[Bip]V[Orn][dNle][Dab][Cha]VKC[Dab][AEEA][Aun]-OH; thioether N-14),15.2 nM
4,CC(C)C[C@H]1NC(=O)[C@H](CCCN)NC(=O)[C@H](C(C)C)NC(=O)[C@H](Cc2ccc(-c3ccccc3)cc2)NC(=O)[C@H](C(C)C)NC(=O)[C@H](Cc2c[nH]c3ccccc23)NC(=O)[C@H](CC(=O)O)NC(=O)[C@H](Cc2ccc(OCC(=O)O)cc2)NC(=O)[C@H](CN)NC(=O)CSC[C@@H](C(=O)N[C@@H](CCCCN)C(=O)NCCCCCCCCCCCC(=O)O)NC(=O)[C@H](C(C)O)NC(=O)[C@H](C(C)C)NC(=O)[C@H](CC2CCCCC2)NC(=O)[C@H](CCCNC(=N)N)NC1=O (stereo partly drawn) [Compound 3150] ({CH2CO}-[Dap]Y(Carboxymethyl)DWV[Bip]V[Orn][dL]R[Cha]V[Thr(3ξ)]CK[12Ado]-OH; thioether N-14),58.7 nM
5,CC(C)C[C@H]1NC(=O)[C@H](CCCN)NC(=O)[C@H](C(C)C)NC(=O)[C@H](Cc2ccc(-c3ccccc3)cc2)NC(=O)[C@H](C(C)C)NC(=O)[C@H](Cc2c[nH]c3ccccc23)NC(=O)[C@H](CC(=O)O)NC(=O)[C@H](Cc2ccncc2)NC(=O)[C@H](Cc2ccc(OCC(=O)O)cc2)NC(=O)CSC[C@@H](C(=O)NCC(=O)NCCOCCOCC(=O)N[C@@H](CCCN)C(=O)NCCCCCCCCCCC(=O)O)NC(=O)[C@H](CN)NC(=O)[C@H](C(C)C)NC(=O)[C@H](CC2CCCCC2)NC(=O)[C@H](CCN)NC1=O [Compound 3232] ({CH2CO}-Y(Carboxymethyl)[4Pal]DWV[Bip]V[Orn][dL][Dab][Cha]V[Dap]CG[AEEA][Orn][Aun]-OH; thioether N-14),10.1 nM
6,CC(C)C[C@H]1NC(=O)[C@H](CCCN)NC(=O)[C@H](C(C)C)NC(=O)[C@H](Cc2ccc(-c3ccccc3)cc2)NC(=O)[C@H](C(C)C)NC(=O)[C@H](Cc2c[nH]c3ccccc23)NC(=O)[C@H](CC(=O)O)NC(=O)[C@H](Cc2ccc(OCC(=O)O)cc2)NC(=O)[C@H](C(C)O)NC(=O)CSC[C@@H](C(=O)NCCOCCOCC(=O)N[C@@H](CC(=O)NCCCCCCCCCCCC(=O)O)C(=O)O)NC(=O)[C@H](CO)NC(=O)[C@H](C(C)C)NC(=O)[C@H](CC2CCCCC2)NC(=O)[C@H](CCN)NC1=O (stereo partly drawn) [Compound 3041] ({CH2CO}-[Thr(3ξ)]Y(Carboxymethyl)DWV[Bip]V[Orn][dL][Dab][Cha]VSC[AEEA][βAsp][12Ado]-OH; thioether N-14),12.7 nM
7,Cc1cccc(C[C@@H]2NC(=O)[C@H](CC(=O)O)NC(=O)[C@H](Cc3ccc(OCC(=O)O)cc3)NC(=O)[C@H](CN)NC(=O)CSC[C@@H](C(=O)N[C@@H](C)C(=O)N[C@@H](CCC(=O)O)C(=O)NCC(=O)NCCCCCCCCCCC(=O)O)NC(=O)[C@H]([C@@H](C)O)NC(=O)[C@H](C(C)C)NC(=O)[C@H](CC3CCCCC3)NC(=O)[C@H](CCN)NC(=O)[C@@H](CC(C)C)NC(=O)[C@H](CCCN)NC(=O)[C@H](CCC(=O)O)NC(=O)[C@H](Cc3ccc(-c4ccccc4)cc3)NC(=O)[C@H](C(C)C)NC2=O)c1 [Compound 1046] ({CH2CO}-[Dap]Y(Carboxymethyl)D[Phe(3-Me)]V[Bip]E[Orn][dL][Dab][Cha]VTCAEG[Aun]-OH; thioether N-14),16.2 nM

# Second part, the compound after the results:
row,IC50,SMILES
1,90.5 nM,Cc1cccc(C[C@@H]2NC(=O)[C@H](CC(=O)O)NC(=O)[C@H](Cc3ccc(OCC(=O)O)cc3)NC(=O)[C@H]([C@H](C)O)NC(=O)CSC[C@@H](C(=O)N[C@@H](CCN)C(=O)NCCOCCOCCOCCOCCOCCOCCC(=O)NCCCCCCCCCCCCCCC(=O)O)NC(=O)[C@H](CCC(=O)O)NC(=O)[C@H](C(C)C)NC(=O)[C@H](CC3CCCCC3)NC(=O)[C@H](CCN)NC(=O)[C@@H](CC(C)C)NC(=O)[C@H](CCCN)NC(=O)[C@H](Cc3ccc(OCC(=O)O)cc3)NC(=O)[C@H](Cc3ccc(-c4ccccc4)cc3)NC(=O)[C@H](Cc3ccc(C(=O)O)cc3)NC2=O)c1 [Compound 3911] ({CH2CO}-[aThr]Y(Carboxymethyl)D[Phe(3-Me)][Phe(4-COOH)][Bip]Y(Carboxymethyl)[Orn][dL][Dab][Cha]VEC[Dab][PEG6]-{NH(CH2)14COOH}; thioether N-14)
2,24.4 nM,Cc1cccc(C[C@@H]2NC(=O)[C@H](CC(=O)O)NC(=O)[C@H](Cc3cccc(C#N)c3)NC(=O)[C@H]([C@@H](C)O)NC(=O)CSC[C@@H](C(=O)N[C@@H](CCN)C(=O)NCCCCCCCCCCC(=O)O)NC(=O)[C@H](CO)NC(=O)[C@H](C(C)(C)O)NC(=O)[C@H](CC3CCCCC3)NC(=O)[C@H](CCN)NC(=O)[C@@H](CC(C)C)NC(=O)[C@H](CCCN)NC(=O)[C@H](Cc3ccc(OCC(=O)O)cc3)NC(=O)[C@H](Cc3ccc(-c4ccccc4)cc3)NC(=O)[C@H](Cc3ccc(OCC(=O)O)cc3)NC2=O)c1 [Compound 2196] ({CH2CO}-T[Phe(3-CN)]D[Phe(3-Me)]Y(Carboxymethyl)[Bip]Y(Carboxymethyl)[Orn][dL][Dab][Cha][Val(3-OH)]SC[Dab][Aun]-OH; thioether N-14)
3,16.1 nM,Cc1cccc(C[C@@H]2NC(=O)[C@H](CC(=O)O)NC(=O)[C@H](Cc3ccc(OCC(=O)O)cc3)NC(=O)[C@H](Cc3ccncc3)NC(=O)CSC[C@@H](C(=O)N[C@H](CCN)C(=O)NCCOCCOCC(=O)NCCCCCCCCCCC(=O)O)NC(=O)[C@H](CCC(=O)O)NC(=O)[C@H](C(C)(C)O)NC(=O)[C@H](CC3CCCCC3)NC(=O)[C@H](CCN)NC(=O)[C@@H](CC(C)C)NC(=O)[C@H](Cc3cnc[nH]3)NC(=O)[C@H](Cc3ccc(C(=O)O)cc3)NC(=O)[C@H](Cc3ccc(-c4ccccc4)cc3)NC(=O)[C@H](Cc3ccc(C(=O)O)cc3)NC2=O)c1 [Compound 3740] ({CH2CO}-[4Pal]Y(Carboxymethyl)D[Phe(3-Me)][Phe(4-COOH)][Bip][Phe(4-COOH)]H[dL][Dab][Cha][Val(3-OH)]EC[dDab][AEEA][Aun]-OH; thioether N-14)
4,21.2 nM,CC(C)C[C@H]1NC(=O)[C@H](CCCN)NC(=O)[C@H](Cc2ccc(O)cc2)NC(=O)[C@H](Cc2ccc(-c3ccccc3)cc2)NC(=O)[C@H](Cc2ccc(O)cc2)NC(=O)[C@H](Cc2c[nH]c3ccccc23)NC(=O)[C@H](CC(=O)O)NC(=O)[C@H](Cc2ccc(OCC(=O)O)cc2)NC(=O)[C@H](Cc2ccc(OCC(=O)O)cc2)NC(=O)CSC[C@@H](C(=O)N[C@@H](CCN)C(=O)NCCOCCOCC(=O)NCCCCCCCCCCC(=O)O)NC(=O)[C@H](CCCNC(=N)N)NC(=O)[C@H](Cc2ccc(O)cc2)NC(=O)[C@H](CC2CCCCC2)NC(=O)[C@H](CCN)NC1=O [Compound 2502] ({CH2CO}-Y(Carboxymethyl)Y(Carboxymethyl)DWY[Bip]Y[Orn][dL][Dab][Cha]YRC[Dab][AEEA][Aun]-OH; thioether N-14)
5,27.8 nM,CC(C)C[C@H]1NC(=O)[C@H](CCCN)NC(=O)[C@H](Cc2ccc(C(=O)O)cc2)NC(=O)[C@H](Cc2ccc(-c3ccccc3)cc2)NC(=O)[C@H](Cc2ccc(C(=O)O)cc2)NC(=O)[C@H](Cc2cccc(C(F)(F)F)c2)NC(=O)[C@H](CC(=O)O)NC(=O)[C@H](Cc2ccc(OCC(=O)O)cc2)NC(=O)[C@H](CN2CCOCC2)NC(=O)CSC[C@@H](C(=O)N[C@@H](CCN)C(=O)NCCOCCOCC(=O)N[C@@H](CC(=O)NCCOCCOCC(=O)NCCCCCCCCCCCCC(=O)O)C(=O)O)NC(=O)[C@H](CO)NC(=O)[C@H](C(C)(C)O)NC(=O)[C@H](CC2CCCCC2)NC(=O)[C@H](CCN)NC1=O [Compound 2941] ({CH2CO}-[Ala(morpholin-4-yl)]Y(Carboxymethyl)D[Phe(3-CF3)][Phe(4-COOH)][Bip][Phe(4-COOH)][Orn][dL][Dab][Cha][Val(3-OH)]SC[Dab][AEEA][βAsp][AEEA]-{NH(CH2)12COOH}; thioether N-14)
